Assay results published in patent US20090148535A1, “METHOD FOR TREATING CANCER USING INTERFERENCE RNA” (MINERVA BIOTECHNOLOGIES CORPORATION, priority 2007, published 2009).

Columns and labels:
Type in all cases: cell-based
BTRes1 cells [1] = experiment: Growth of siRNA-transfected BTRes1 cells in the presence of HERCEPTIN; conditions: HERCEPTIN 0-1 ug/ml, cell counts three days post-treatment
Protocol: Percent Normalized Growth was then calculated: Percent Normalized Growth=[(Day 3 cell counts with Antibody Added )−(Zero-day cell counts)]/[(Day 3 Cell counts without antibody added)−(Zero-day cell counts)]×100%
(§1) BT474 cells were transfected in triplicate with control siRNA (Santa Cruz Biotechnologies; sc-37007), and BTRes1 cells were transfected in triplicate with control or MUC1-specific siRNA (Santa Cruz Biotechnologies sc-35985). One microliter of 10 uM siRNA was added to 100 ul of OptiMEM medium (Invitrogen 22600134). Six microliters of HiPerfect reagent (Qiagen 301704) were then added to each tube. After vortexing, tubes were incubated at room temperature for 20 minutes. Meanwhile, cells were trypsinized, pelleted and resuspended in fresh RPMI without HERCEPTIN. 5×10^5 cells in 2.3 ml RPMI were combined with the OptiMEM with siRNA/HiPerfect complexes and added to a well of a 6 well plate. Two days later, cells were re-transfected by the same method, and plated in 96 well plates, at 10,000 cells/well, five wells/condition. Leftover cells were plated in six well plates. […] The following day, cells plated in 6 well plates were harvested and pelleted for Western analysis to evaluate siRNA efficacy. Three days later, cells were counted, and Percent Normalized Growth was calculated.

MUC1* = experiment: Western blot of MUC1* after siRNA transfection; conditions: Western Blot after transient siRNA transfection
Protocol: as §1

BTRes1 cells [2] = experiment: Cell death of BTRes1 cells with chemotherapeutic agents with or without Anti-MUC1* Fab (Trypan Blue exclusion); conditions: for resistance of BTRes1 and restored killing effect with Anti-MUC1* Fab: 10 ug/ml Anti-MUC1* Fab
Protocol: (§2) BT474, BTRes1 and BTRes2 cells were plated at 10,000 cells/well in 96 well plates, 4 wells/condition. The following day, Cyclophosphamide, Taxol, or Doxorubicin were added in varying concentrations, alone, or in the presence of 10 ug/ml Anti-MUC1* Fab or 10 ug/ml Control Fab. Cells were left untreated, or treated with either Fab alone as controls. Two days later, cells were resuspended in 50 ul trypsin, and counted in the presence of trypan blue. Percent cell death was calculated as percent trypan blue uptake.

BT474 cells = experiment: Cell death of BT474 cells with chemotherapeutic agents (Trypan Blue exclusion); conditions: 10 nM Taxol, two days post-treatment
Protocol: as §2

“MUC1 siRNA: MUC1-specific siRNA (Santa Cruz Biotechnologies sc-35985) (GCAGCCTCTCGATATAACCATCTCGAGGGGTTATATCGAGAGGCTGC; expressed or natural sequence)” was tested, and the “growth in the presence of HERCEPTIN of cells transfected with the siRNA” value (BTRes1 cells [1]) was “reduced” and the “MUC1* level” value (MUC1*) was “Down regulation”.
`O=P1(N(CCCl)CCCl)NCCCO1` (stereo not shown) [Cyclophospharnide, Cyclophosphamide] was tested, and the “resistance of BTRes1 and restored killing effect with Anti-MUC1* Fab” value (BTRes1 cells [2]; 10 uM drug) was “also observed”.
In the case of `COc1cccc2c1C(=O)c1c(O)c3c(c(O)c1C2=O)C[C@@](O)(C(=O)CO)C[C@@H]3O[C@H]1C[C@H](N)[C@H](O)[C@H](C)O1` [Doxorubicin], the “resistance of BTRes1 and restored killing effect with Anti-MUC1* Fab” value (BTRes1 cells [2]; 1 uM drug) is reported as “also observed”.
With `CC(=O)O[C@H]1C(=O)[C@@]2(C)[C@H]([C@H](OC(=O)c3ccccc3)[C@]3(O)C[C@H](OC(=O)[C@H](O)[C@@H](NC(=O)c4ccccc4)c4ccccc4)C(C)=C1C3(C)C)[C@]1(OC(C)=O)CO[C@@H]1C[C@@H]2O` [Taxol] the cell killing (BT474 cells) was “effectively killed”, the cell killing (BTRes1 cells [2]; BTRes1, 10 nM Taxol alone, two days, compared to untreated cells) was “essentially unaffected” and the “killing effect with Anti-MUC1* Fab” value (BTRes1 cells [2]; BTRes1, 10 nM Taxol and 10 ug/ml Anti-MUC1* Fab) was “restored”.
